Data published in ChEMBL document CHEMBL5226341, “Discovery of a Potent FLT3 Inhibitor (LT-850-166) with the Capacity of Overcoming a Variety of FLT3 Mutations” (J Med Chem, 2021).

Columns and labels:
[1] = biological target: Receptor-type tyrosine-protein kinase FLT3 (Homo sapiens, UniProt P36888, ITD); assay: Inhibition of human FLT3-ITD mutant preincubated with enzyme for 20 mins followed by [gamma-33P]ATP addition and measured after 120 mins by filter binding method
[2] = tested on: BaF3; assay: Antiproliferative activity against mouse BaF3 cells harboring FLT3-ITD-F691L mutant assessed as residual cell viability at 50 nM incubated for 72 hrs by CellTiterGlo luminescent assay; type: functional
[3] = tested on: MV4-11; assay: Antiproliferative activity against human MV4-11 cells assessed as inhibition of cell growth incubated for 72 hrs by CellTiterGlo luminescent assay; type: functional, cell-based; conditions: MV4-11, 72 h
[4] = tested on: BaF3; assay: Antiproliferative activity against mouse BaF3 cells harboring FLT3-ITD-F691L mutant assessed as residual cell viability at 10 nM incubated for 72 hrs by CellTiterGlo luminescent assay; type: functional
[5] = tested on: BaF3; assay: Antiproliferative activity against mouse BaF3 cells harboring FLT3-ITD-F691L mutant assessed as residual cell viability at 0.1 uM incubated for 72 hrs by CellTiterGlo luminescent assay; type: functional
[6] = tested on: BaF3; assay: Antiproliferative activity against mouse BaF3 cells harboring FLT3-ITD-F691L mutant assessed as reduction in cell viability incubated for 72 hrs by CellTiterGlo luminescent assay; type: functional, cell-based; conditions: BaF3, 72 h

Chain of Receptor-type tyrosine-protein kinase FLT3 (P36888 whole entry, looked up, stated change not applied): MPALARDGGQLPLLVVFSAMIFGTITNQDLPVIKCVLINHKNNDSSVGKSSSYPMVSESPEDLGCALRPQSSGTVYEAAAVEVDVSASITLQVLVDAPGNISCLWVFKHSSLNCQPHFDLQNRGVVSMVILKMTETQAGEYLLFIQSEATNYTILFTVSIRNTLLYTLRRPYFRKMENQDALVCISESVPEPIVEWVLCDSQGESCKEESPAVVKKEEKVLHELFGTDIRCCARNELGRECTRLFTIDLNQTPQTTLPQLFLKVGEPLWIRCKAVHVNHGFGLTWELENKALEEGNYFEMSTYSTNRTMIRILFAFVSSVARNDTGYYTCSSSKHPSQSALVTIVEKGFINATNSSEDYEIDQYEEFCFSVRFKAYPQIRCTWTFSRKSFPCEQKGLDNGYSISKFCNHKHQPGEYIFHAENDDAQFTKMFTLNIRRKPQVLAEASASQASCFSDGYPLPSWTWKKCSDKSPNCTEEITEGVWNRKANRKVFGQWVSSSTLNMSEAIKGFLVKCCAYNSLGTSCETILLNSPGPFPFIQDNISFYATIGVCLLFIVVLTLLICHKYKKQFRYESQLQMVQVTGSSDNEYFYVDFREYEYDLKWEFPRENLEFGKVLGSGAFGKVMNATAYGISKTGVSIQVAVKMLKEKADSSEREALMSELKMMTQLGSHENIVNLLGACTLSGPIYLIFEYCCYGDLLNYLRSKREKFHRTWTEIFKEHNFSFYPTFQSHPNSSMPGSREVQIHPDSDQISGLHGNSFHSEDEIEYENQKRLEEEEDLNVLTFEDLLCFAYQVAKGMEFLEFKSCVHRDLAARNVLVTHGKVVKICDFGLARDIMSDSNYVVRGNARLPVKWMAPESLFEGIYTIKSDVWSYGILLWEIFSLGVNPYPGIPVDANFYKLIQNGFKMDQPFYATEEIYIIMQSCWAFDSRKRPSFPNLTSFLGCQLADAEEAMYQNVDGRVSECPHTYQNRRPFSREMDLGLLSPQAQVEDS

SMILES | IC50 [1] [nM] | Activity [2] [%] | IC50 [3] [nM] | Activity [4] [%] | Activity [5] [%] | IC50 [6] [nM]
CN1CCC(Nc2ccc(C(=O)Nc3cc(-c4ccc5ncn(C6CC6)c5c4)[nH]n3)cc2)CC1 | 3.58 |  |  |  |  | 
CN1CCC(Nc2ccc(C(=O)Nc3cc(-c4ccc5ncn(CC6CCCCC6)c5c4)[nH]n3)cc2)CC1 | 3.86 |  |  |  |  | 
CCN1CCN(c2ccc(C(=O)Nc3cc(-c4ccc5ncn(Cc6cccc(F)c6Cl)c5c4)[nH]n3)cc2)CC1 |  | 47.53 | 12.5 | 101.05 |  | 
Cc1ccccc1Cn1cnc2ccc(-c3cc(NC(=O)c4ccc(NC5CCN(C)CC5)cc4)n[nH]3)cc21 | 0.94 |  | 29.7 |  | 86.49 | 
CC(=O)N1CCN(c2ccc(C(=O)Nc3cc(-c4ccc5ncn(Cc6c(Cl)cccc6Cl)c5c4)[nH]n3)cc2)CC1 |  |  | 1.1 | 103.45 |  | 
CN1CCC(Nc2ccc(C(=O)Nc3cc(-c4ccc5ncn(C6CCOCC6)c5c4)[nH]n3)cc2)CC1 | 5.73 |  |  |  |  | 
CN1CCN(c2ccc(C(=O)Nc3cc(-c4ccc5ncn(Cc6c(Cl)cccc6Cl)c5c4)[nH]n3)cc2)CC1=O |  |  | 2.64 | 104.57 |  | 
CN1CCC(Nc2ccc(C(=O)Nc3cc(-c4ccc5ncn(Cc6ccccc6)c5c4)[nH]n3)cc2F)CC1 | 3.77 |  | 32.6 |  | 100.57 | 
CN1CCN(c2ccc(C(=O)Nc3cc(-c4ccc5ncn(Cc6ccccc6Cl)c5c4)[nH]n3)cc2)CC1 |  |  | 30 |  | 20.29 | 82.8
CCN1CCN(c2ccc(C(=O)Nc3cc(-c4ccc5ncn(Cc6c(Cl)cccc6Cl)c5c4)[nH]n3)cn2)CC1 |  |  | 3.25 | 102.56 |  | 
CCN1CCN(c2ncc(C(=O)Nc3cc(-c4ccc5ncn(Cc6c(Cl)cccc6Cl)c5c4)[nH]n3)cn2)CC1 |  |  | 12.6 | 111.76 |  | 
O=C(Nc1cc(-c2ccc3ncn(Cc4c(Cl)cccc4Cl)c3c2)[nH]n1)c1ccc(N2CCOCC2)cc1 |  |  | 3.61 | 109.68 |  | 
O=C(Nc1cc(-c2ccc3ncn(Cc4ccccc4)c3c2)[nH]n1)c1ccccc1 | 12.9 |  | 219 |  |  | 
CN1CCC(Nc2ccc(C(=O)Nc3cc(-c4ccc5ccn(Cc6ccccc6)c5c4)[nH]n3)cc2)CC1 | 2.06 |  | 75.6 |  |  | 
CN1CCC(Nc2ccc(C(=O)Nc3cc(-c4ccc5c(c4)ncn5Cc4ccccc4)[nH]n3)cc2)CC1 | 4.96 |  | 58.4 |  |  | 
CC(C)n1cnc2ccc(-c3cc(NC(=O)c4ccc(NC5CCN(C)CC5)cc4)n[nH]3)cc21 | 7.65 |  |  |  |  | 
CN1CCC(Nc2ccc(C(=O)Nc3cc(-c4ccc5ncccc5c4)[nH]n3)cc2)CC1 | 10.3 |  |  |  |  | 
CN1CCC(Nc2ccc(C(=O)Nc3cc(-c4cccc5ncn(C)c45)[nH]n3)cc2)CC1 | 213 |  |  |  |  | 
CN1CCN(Cc2ccc(NC(=O)c3n[nH]cc3Nc3ncnc4[nH]ccc34)cc2)CC1 | 1.71 |  | 6.38 |  |  | 7.65
CN1CCCN(c2ccc(C(=O)Nc3cc(-c4ccc5ncn(Cc6c(Cl)cccc6Cl)c5c4)[nH]n3)cc2)CC1 |  |  | 1.38 | 107.43 |  | 
CN1CCC(Nc2ccc(C(=O)Nc3cc(-c4ccc5ncn(Cc6ccsc6)c5c4)[nH]n3)cc2)CC1 | 1.42 |  | 55.6 |  | 108.58 | 
CCN1CCN(c2ccc(C(=O)Nc3cc(-c4ccc5ncn(Cc6c(C)cccc6C)c5c4)[nH]n3)cc2)CC1 |  | 4.57 | 4.85 | 103.84 |  | 
CN(C)CCN(C)c1ccc(C(=O)Nc2cc(-c3ccc4ncn(Cc5c(Cl)cccc5Cl)c4c3)[nH]n2)cc1 |  |  | 2.78 | 102.83 |  | 
CN1CCC(C(=O)Nc2cc(-c3ccc4ncn(Cc5ccccc5)c4c3)[nH]n2)CC1 | 397 |  | 1700 |  |  | 
Cc1cc(NC2CCN(C)CC2)ccc1C(=O)Nc1cc(-c2ccc3ncn(Cc4ccccc4)c3c2)[nH]n1 | 9.06 |  | 86.2 |  |  | 
CN1CCC(Nc2ccc(C(=O)Nc3cc(-c4ccc5ncn(Cc6ccccc6)c5c4)[nH]n3)c(F)c2)CC1 | 11.1 |  | 99.3 |  |  | 

SMILES | IC50 [1] [nM] | Activity [2] [%] | IC50 [3] [nM] | Activity [4] [%] | Activity [5] [%] | IC50 [6] [nM]
CN1CCC(Nc2ccc(C(=O)Nc3cc(-c4ccc5ncn(Cc6ccc(Cl)cc6)c5c4)[nH]n3)cc2)CC1 | 3.59 |  | 219 |  | 101.73 | 
CN(C)CCNc1ccc(C(=O)Nc2cc(-c3ccc4ncn(Cc5c(Cl)cccc5Cl)c4c3)[nH]n2)cc1 |  |  | 3.14 | 101.71 |  | 
COCCNc1ccc(C(=O)Nc2cc(-c3ccc4ncn(Cc5c(Cl)cccc5Cl)c4c3)[nH]n2)cc1 |  |  | 6.37 | 84.97 |  | 
CN1CCC(Nc2ccc(C(=O)Nc3cc(-c4ccc5ncn(Cc6cccc(Cl)c6)c5c4)[nH]n3)cc2)CC1 | 0.94 |  | 66 |  | 100.75 | 
COc1ccccc1Cn1cnc2ccc(-c3cc(NC(=O)c4ccc(NC5CCN(C)CC5)cc4)n[nH]3)cc21 | 0.7 |  | 33.6 |  | 85.88 | 
CN1CCC(Nc2ccc(C(=O)Nc3cc(-c4ccc5ncn([C@H]6CC[C@H](N)CC6)c5c4)[nH]n3)cc2)CC1 | 3.88 |  |  |  |  | 
CN1CCC(Nc2ccc(C(=O)Nc3cc(-c4ccc5ncn(Cc6ccccc6)c5c4)[nH]n3)cc2)CC1 | 1.84 |  |  |  | 96.22 | 
CCN1CCN(c2ccc(C(=O)Nc3cc(-c4ccc5ncn(Cc6cc(F)ccc6Cl)c5c4)[nH]n3)cc2)CC1 |  | 49.36 | 12.6 | 107.7 |  | 
O=C(Nc1cc(-c2ccc3ncn(Cc4ccccc4Cl)c3c2)[nH]n1)c1ccc(N2CCNCC2)cc1 |  |  | 13.8 |  | 14.55 | 60.9
O=C(Nc1cc(-c2ccc3ncn(Cc4c(Cl)cccc4Cl)c3c2)[nH]n1)c1ccc(N2CC3CC2CN3)cc1 (stereo not given) |  |  | 2.26 | 103.48 |  | 
CN1CCC(Nc2ccc(C(=O)Nc3cc(-c4ccc5ncn(Cc6ccccc6F)c5c4)[nH]n3)cc2)CC1 | 8.34 |  | 90.6 |  | 99.79 | 
O=C(Nc1cc(-c2ccc3ncn(Cc4ccccc4Cl)c3c2)[nH]n1)c1ccc(N2CCOCC2)cc1 |  |  | 9.02 |  | 16.59 | 65.2
CCN1CCN(c2ccc(C(=O)Nc3cc(-c4ccc5ncn(Cc6c(F)cccc6Cl)c5c4)[nH]n3)cc2)CC1 |  | 21.63 | 2.61 | 101.37 |  | 
CN1CCC(Nc2ccc(C(=O)Nc3cc(-c4ccc5ncn(Cc6cccc(F)c6)c5c4)[nH]n3)cc2)CC1 | 3.22 |  | 18.5 |  | 97.08 | 
CN1CCC(Nc2ccc(C(=O)Nc3cc(-c4ccc5ncn(Cc6ccccc6Cl)c5c4)[nH]n3)cc2)CC1 | 0.85 |  | 25.4 |  | 40.17 | 
CN1CCC(Nc2ccc(C(=O)Nc3cc(-c4ccc5ncn(C6CCCC6)c5c4)[nH]n3)cc2)CC1 | 1.14 |  | 68.2 |  | 97.57 | 
CN1CCC(Nc2ccc(C(=O)Nc3cc(-c4ccc5ncn(C)c5c4)[nH]n3)cc2)CC1 | 7.59 |  |  |  |  | 
CN1CCC(Nc2ccc(C(=O)Nc3cc(-c4ccc5ncn(Cc6ccc(F)cc6)c5c4)[nH]n3)cc2)CC1 | 4.58 |  | 23.6 |  | 100.93 | 
CN1CCC(Nc2ccc(C(=O)Nc3cc(-c4ccc5ncn(-c6ccccc6)c5c4)[nH]n3)cc2)CC1 | 4.96 |  |  |  |  | 
CN1CCC(Nc2ccc(C(=O)Nc3cc(-c4ccc5ncn(Cc6c(Cl)cccc6Cl)c5c4)[nH]n3)cc2)CC1 |  |  | 0.77 | 104.29 |  | 
CN1CCC(Nc2ccc(C(=O)Nc3cc(-c4ccc5nccnc5c4)[nH]n3)cc2)CC1 | 14.1 |  |  |  |  | 
CN1CCC(Nc2ccc(C(=O)Nc3cc(-c4ccc5ncn(Cc6ccncc6)c5c4)[nH]n3)cc2)CC1 | 16 |  |  |  |  | 
O=C(Nc1cc(-c2ccc3ncn(Cc4c(Cl)cccc4Cl)c3c2)[nH]n1)c1ccc(N2CC3CC2CO3)cc1 (stereo not given) |  |  | 2.88 | 88.75 |  | 
CN1CCC(Nc2ccc(C(=O)Nc3cc(-c4cccc5c4ncn5C)[nH]n3)cc2)CC1 | 23.7 |  |  |  |  | 
Cc1cc(C(=O)Nc2cc(-c3ccc4ncn(Cc5ccccc5)c4c3)[nH]n2)ccc1NC1CCN(C)CC1 | 3.72 |  | 48.2 |  | 99.36 | 
